Experiment: dissolution kinetics in water followed on-line by UV/Vis spectroscopy
Type: physicochemical
Settings: 20 mg pure compound in 1L milli Q water at 60° C.
Method: The dissolution kinetics of example 4 in water was tested. A final concentration of (E)-3-(3,4-dimethoxyphenyl)-N-(4-methoxyphenethyl)acrylamide of 20 ppm dissolved in water was targeted. Eighty (80) mg of a solid dispersion of (E)-3-(3,4-dimethoxyphenyl)-N-(4-methoxyphenethyl)acrylamide and gum arabic was dispersed in 1L of milli Q water heated at 60° C. The solution was stirred mechanically by the means of a paddle stirrer at 200 rpm. The dissolution process was followed on-line by monitoring the UV signal of dissolved (E)-3-(3,4-dimethoxyphenyl)-N-(4-methoxyphenethyl)acrylamide with UV/Vis spectroscopy using a fiber optic probe from Ocean Optics. The powder was entirely dissolved after 2 minutes. The maximum dissolution rate during the process was 28 ppm/minute.
Comparative example: (E)-3-(3,4-dimethoxyphenyl)-N-(4-methoxyphenethyl)acrylamide pure. A final concentration of (E)-3-(3,4-dimethoxyphenyl)-N-(4-methoxyphenethyl)acrylamide of 20 ppm dissolved in water was targeted. Twenty (20) mg of the pure (E)-3-(3,4-dimethoxyphenyl)-N-(4-methoxyphenethyl)acrylamide were dispersed in 1L of milli Q water heated at 60° C. The dissolution process yielded 50% of the target concentration of 20 ppm (10 ppm) after 78 minutes. The target concentration could not be achieved after 6 hours. The concentration of dissolved (E)-3-(3,4-dimethoxyphenyl)-N-(4-methoxyphenethyl)acrylamide after 6 hours was 15 ppm (75% of target).

- time to 50% of the target concentration of 20 ppm (10 ppm): 78 min
- concentration of dissolved compound after 6 hours (after 6 hours): 15 ppm
- dissolved compound after 6 hours as % of target (after 6 hours, target 20 ppm): 75 % of target
- time to achieve the target concentration (20 ppm) (target could not be achieved): > 6 h
SMILES: COc1ccc(CCNC(=O)/C=C/c2ccc(OC)c(OC)c2)cc1 [(E)-3-(3,4-dimethoxyphenyl)-N-(4-methoxyphenethyl)acrylamide]

Source: patent publication US20170245538A1, “SOLID DISPERSION OF AMIDE FLAVOR COMPOUNDS” (Firmenich SA, priority 2014, published 2017)
